# Test results from patent US9273040B2 (Merck Sharp & Dohme Corp., priority 2011, dated 2016).
# Legend:
# Type in all cases: cell-based
# [1] = target: T1, human Nav1.5 channels stably expressed in HEK 293 cells (Homo sapiens, UniProt Q14524); experiment: PatchXpress 7000 automated patch-clamp, sodium current; conditions: selectivity over Nav1.5
# T1 construct: expressed in transfected cells
# Method in brief: (§1)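 IC50 values came from Hill-equation fits of rundown-corrected inhibition. PatchXpress recordings at 22° C held cells 20 mV negative to V0.5 inact and applied 10 Hz trains of 30 ms steps to −20 mV (Nav1.7) or an 8000 ms prepulse 7 mV positive to V0.5 inact. […]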
# [2] = target: T2, human Nav1.7 channels stably expressed in HEK 293 cells (Homo sapiens, UniProt Q15858); experiment: as above; conditions: 22° C., read-out: potency for the Nav 1.7 sodium ion channel (as measured by PatchXpress)
# T2 construct: expressed in transfected cells
# Method in brief: as §1
# [3] = target: T2, human Nav1.7 channels stably expressed in HEK 293 cells; experiment: IonWorks Quattro automated patch-clamp, sodium current, inactivated state block; conditions: read-out: potency for the Nav 1.7 sodium ion channel (as measured by IonWorks)
# Procedure: Compounds were tested on human Nav1.7 and Nav1.5 channels stably expressed in HEK 293 cells. […] Cells were sealed on a planar substrate using the Population Patch Plate (PPC) technology. Electrical access was obtained using both nystatin and amphotericin. A double-pulse protocol was used for the determination of IC50 values for inactivated state block. Nav1.7 and Nav1.5 expressing cells were voltage clamped at −100 mV and −110 mV, respectively. A depolarizing prepulse to −10 mV (Nav1.7) or −30 mV (Nav1.5) for 1000 ms followed by a 10 ms repolarization to −100 mV (Nav1.7) or −110 mV (Nav1.5) was given to generate fractional channel inactivation of ˜50%, followed by a 10 ms test pulse to −10 mV (Nav1.7) or −30 mV (Nav1.5) to measure peak current in control conditions and after compound addition. The following recording solutions were used (mM). External: 150 NaCl, 2 CaCl2, 5 KCl, 1 Mg Cl2, 10 HEPES, 12 Dextrose; internal: 120 CsF, 30 CsCl, 10 EGTA, 5 HEPES, 5 NaF, 2 MgCl2.
# For all electrophysiology experiments, offline analysis was used to correct for current rundown and to determine percent inhibition as a function of drug concentration. IC50 values were determined by fitting to the Hill equation.
# T1 sequence (Q14524 whole entry): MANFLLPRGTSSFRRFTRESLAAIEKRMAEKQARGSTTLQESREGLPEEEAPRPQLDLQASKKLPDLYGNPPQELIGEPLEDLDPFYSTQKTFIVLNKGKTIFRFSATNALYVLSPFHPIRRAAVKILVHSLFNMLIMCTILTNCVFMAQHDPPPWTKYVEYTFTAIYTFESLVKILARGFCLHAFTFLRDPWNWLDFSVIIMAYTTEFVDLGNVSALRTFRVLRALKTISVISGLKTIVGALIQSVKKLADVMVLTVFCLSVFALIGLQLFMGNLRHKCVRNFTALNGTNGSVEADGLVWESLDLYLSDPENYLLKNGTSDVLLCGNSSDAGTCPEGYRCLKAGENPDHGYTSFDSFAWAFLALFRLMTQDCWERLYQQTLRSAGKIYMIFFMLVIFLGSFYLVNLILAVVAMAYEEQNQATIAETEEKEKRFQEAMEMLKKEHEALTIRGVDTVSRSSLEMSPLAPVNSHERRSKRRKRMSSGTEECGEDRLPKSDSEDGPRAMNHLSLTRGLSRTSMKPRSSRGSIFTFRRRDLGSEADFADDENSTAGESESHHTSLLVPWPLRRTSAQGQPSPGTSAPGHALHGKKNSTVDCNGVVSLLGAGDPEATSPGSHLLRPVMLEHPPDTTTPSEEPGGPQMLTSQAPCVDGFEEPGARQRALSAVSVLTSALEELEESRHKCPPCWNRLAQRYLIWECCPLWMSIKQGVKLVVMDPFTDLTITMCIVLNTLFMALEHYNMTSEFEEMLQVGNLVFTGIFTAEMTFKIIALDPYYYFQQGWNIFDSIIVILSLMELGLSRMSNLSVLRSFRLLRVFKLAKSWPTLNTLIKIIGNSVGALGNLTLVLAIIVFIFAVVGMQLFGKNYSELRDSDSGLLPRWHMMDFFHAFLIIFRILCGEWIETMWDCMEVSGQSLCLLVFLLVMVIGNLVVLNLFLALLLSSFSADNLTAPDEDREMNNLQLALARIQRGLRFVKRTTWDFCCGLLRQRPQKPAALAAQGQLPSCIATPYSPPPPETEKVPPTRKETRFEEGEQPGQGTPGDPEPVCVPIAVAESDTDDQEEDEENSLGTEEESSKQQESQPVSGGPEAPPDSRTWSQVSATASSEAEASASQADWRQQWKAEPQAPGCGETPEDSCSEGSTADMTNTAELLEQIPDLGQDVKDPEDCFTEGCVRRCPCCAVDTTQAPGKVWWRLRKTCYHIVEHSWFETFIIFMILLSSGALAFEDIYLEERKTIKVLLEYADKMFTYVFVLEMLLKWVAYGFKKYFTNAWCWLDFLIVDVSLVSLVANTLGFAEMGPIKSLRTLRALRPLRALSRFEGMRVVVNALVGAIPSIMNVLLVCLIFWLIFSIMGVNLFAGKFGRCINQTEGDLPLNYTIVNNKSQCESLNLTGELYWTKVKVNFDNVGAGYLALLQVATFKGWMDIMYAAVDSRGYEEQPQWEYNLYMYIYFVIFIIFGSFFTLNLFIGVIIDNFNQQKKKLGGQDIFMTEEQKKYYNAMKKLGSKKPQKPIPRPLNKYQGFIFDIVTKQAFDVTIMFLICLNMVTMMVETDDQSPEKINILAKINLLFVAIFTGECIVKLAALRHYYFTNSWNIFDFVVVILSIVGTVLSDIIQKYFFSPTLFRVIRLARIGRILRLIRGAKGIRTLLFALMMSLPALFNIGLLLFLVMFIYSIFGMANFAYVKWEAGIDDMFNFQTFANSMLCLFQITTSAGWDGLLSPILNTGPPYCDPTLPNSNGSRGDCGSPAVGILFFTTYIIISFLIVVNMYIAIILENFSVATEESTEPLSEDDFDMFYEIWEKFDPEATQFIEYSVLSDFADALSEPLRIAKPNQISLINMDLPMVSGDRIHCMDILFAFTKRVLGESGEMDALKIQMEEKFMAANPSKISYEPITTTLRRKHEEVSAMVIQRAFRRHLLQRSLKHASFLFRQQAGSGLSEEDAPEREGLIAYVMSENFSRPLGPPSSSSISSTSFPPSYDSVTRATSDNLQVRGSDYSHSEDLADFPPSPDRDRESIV
# T2 sequence (Q15858 whole entry): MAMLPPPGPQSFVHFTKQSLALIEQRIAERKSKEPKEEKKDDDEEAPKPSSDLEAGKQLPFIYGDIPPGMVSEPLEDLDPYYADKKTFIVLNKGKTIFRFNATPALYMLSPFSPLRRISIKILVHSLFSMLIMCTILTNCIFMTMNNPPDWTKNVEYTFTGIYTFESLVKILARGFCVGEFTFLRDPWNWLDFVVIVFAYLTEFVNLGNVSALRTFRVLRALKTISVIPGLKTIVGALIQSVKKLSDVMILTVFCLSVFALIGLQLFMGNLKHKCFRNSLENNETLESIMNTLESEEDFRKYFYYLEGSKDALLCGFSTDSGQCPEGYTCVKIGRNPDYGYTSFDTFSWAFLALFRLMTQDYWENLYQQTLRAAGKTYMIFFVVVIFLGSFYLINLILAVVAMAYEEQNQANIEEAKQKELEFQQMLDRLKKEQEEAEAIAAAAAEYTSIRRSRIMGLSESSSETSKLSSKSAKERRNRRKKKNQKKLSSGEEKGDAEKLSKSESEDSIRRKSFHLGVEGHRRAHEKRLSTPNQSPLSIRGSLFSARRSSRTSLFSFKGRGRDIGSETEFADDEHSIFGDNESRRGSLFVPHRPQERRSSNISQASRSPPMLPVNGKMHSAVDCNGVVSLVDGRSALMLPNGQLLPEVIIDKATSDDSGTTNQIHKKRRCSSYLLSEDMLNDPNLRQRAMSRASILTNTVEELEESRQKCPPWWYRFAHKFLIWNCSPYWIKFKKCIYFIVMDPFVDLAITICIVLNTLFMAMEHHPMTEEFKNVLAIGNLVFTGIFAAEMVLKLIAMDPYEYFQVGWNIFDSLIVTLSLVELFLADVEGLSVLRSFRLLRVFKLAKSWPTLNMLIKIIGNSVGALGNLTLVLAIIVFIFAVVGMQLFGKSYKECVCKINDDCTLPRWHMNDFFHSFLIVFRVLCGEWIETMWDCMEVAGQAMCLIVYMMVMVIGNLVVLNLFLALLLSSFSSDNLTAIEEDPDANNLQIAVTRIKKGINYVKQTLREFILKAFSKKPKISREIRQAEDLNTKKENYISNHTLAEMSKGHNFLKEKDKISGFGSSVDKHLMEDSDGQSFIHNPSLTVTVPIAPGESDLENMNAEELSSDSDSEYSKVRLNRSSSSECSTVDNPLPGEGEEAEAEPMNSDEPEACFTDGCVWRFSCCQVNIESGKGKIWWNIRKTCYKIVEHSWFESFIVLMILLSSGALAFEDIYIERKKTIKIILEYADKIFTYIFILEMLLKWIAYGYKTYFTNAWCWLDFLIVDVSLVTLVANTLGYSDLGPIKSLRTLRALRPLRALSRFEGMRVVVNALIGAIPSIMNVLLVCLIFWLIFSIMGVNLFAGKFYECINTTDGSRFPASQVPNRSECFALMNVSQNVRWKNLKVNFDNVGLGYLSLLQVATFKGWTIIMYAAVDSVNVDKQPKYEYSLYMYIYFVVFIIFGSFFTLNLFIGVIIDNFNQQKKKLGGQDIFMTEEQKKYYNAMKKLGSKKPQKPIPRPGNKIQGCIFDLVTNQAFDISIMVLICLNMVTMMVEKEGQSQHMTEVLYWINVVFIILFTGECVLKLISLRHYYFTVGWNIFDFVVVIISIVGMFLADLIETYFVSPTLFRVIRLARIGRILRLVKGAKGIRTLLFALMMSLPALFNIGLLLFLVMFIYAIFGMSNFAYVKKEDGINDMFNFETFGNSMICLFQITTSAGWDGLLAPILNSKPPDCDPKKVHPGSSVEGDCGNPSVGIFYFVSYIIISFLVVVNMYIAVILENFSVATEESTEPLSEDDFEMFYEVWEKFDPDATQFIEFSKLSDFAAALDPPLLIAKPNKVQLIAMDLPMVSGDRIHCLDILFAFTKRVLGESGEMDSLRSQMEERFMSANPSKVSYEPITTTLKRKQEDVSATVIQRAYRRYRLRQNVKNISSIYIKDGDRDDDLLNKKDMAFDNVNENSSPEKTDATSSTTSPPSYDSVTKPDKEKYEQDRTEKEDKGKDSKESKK
Compound,"ratio of Nav 1.5:Nav 1.7 potency, determined by PatchXpress measurement [1]",IC50 [2],IC50 [3]
"O=c1oc2cc(S(=O)(=O)Nc3ncns3)ccc2n1Cc1cccc(-c2ccc3c(c2)CNCC3)c1 [Compound 3-12, 2-oxo-3-[3-(1,2,3,4-tetrahydroisoquinolin-7-yl)benzyl]-N-1,2,4-thiadiazol-5-yl-2,3-dihydro-1,3-benzoxazole-6-sulfonamide]",55,545 nM,287 nM
"O=c1oc2cc(S(=O)(=O)Nc3ncns3)ccc2n1Cc1cccc(C2=CC3CCC(C2)N3)c1 (centres unmarked) [Compound 3-18, 3-[3-(8-azabicyclo[3.2.1]oct-2-en-3-yl)benzyl]-2-oxo-N-1,2,4-thiadiazol-5-yl-2,3-dihydro-1,3-benzoxazole-6-sulfonamide]",–,–,1330 nM
"O=c1oc2cc(S(=O)(=O)Nc3ncns3)c(F)cc2n1CC1CC1c1ccccc1 (centres unmarked) [Compound 11-10, 5-fluoro-2-oxo-3-[(2-phenylcyclopropyl)methyl]-N-1,2,4-thiadiazol-5-yl-2,3-dihydro-1,3-benzoxazole-6-sulfonamide]",123,44 nM,–
"O=c1oc2cc(S(=O)(=O)Nc3ncns3)c(F)cc2n1C[C@H]1C[C@@H]1I [Compound 11-9, 5-fluoro-3-{[(1R,2S)-2-iodocyclopropyl]methyl}-2-oxo-N-1,2,4-thiadiazol-5-yl-2,3-dihydro-1,3-benzoxazole-6-sulfonamide]",56,301 nM,–
"CC(N)C#Cc1ccccc1[C@@H](C)n1c(=O)oc2cc(S(=O)(=O)Nc3ncns3)c(F)cc21 (stereo partly drawn) [Compound 17-19, 3-{(1R)-1-[2-(3-aminobut-1-yn-1-yl)phenyl]ethyl}-5-fluoro-2-oxo-N-1,2,4-thiadiazol-5-yl-2,3-dihydro-1,3-benzoxazole-6-sulfonamide]",1390,22 nM,–
"C[C@H](c1ccccc1C#C[C@@H]1CCCN1)n1c(=O)oc2cc(S(=O)(=O)Nc3ncns3)c(F)cc21 [Compound 17-17, 5-fluoro-2-oxo-3-[(1R)-1-{2-[(2S)-pyrrolidin-2-ylethynyl]phenyl}ethyl]-N-1,2,4-thiadiazol-5-yl-2,3-dihydro-1,3-benzoxazole-6-sulfonamide]",1034,29 nM,–
"Cc1csc(NS(=O)(=O)c2ccc3c(c2)oc(=O)n3C(C)c2ccccc2)n1 (centres unmarked) [Compound 40-5, N-(4-methyl-1,3-thiazol-2-yl)-2-oxo-3-(1-phenylethyl)-2,3-dihydro-1,3-benzoxazole-6-sulfonamide]",25,1190 nM,–
"NC1CCc2c(cccc2Cn2c(=O)oc3cc(S(=O)(=O)Nc4ncns4)c(F)cc32)C1 (racemic) [Compound 23-8, (+/−)-3-[(6-amino-5,6,7,8-tetrahydronaphthalen-1-yl)methyl]-5-fluoro-2-oxo-N-1,2,4-thiadiazol-5-yl-2,3-dihydro-1,3-benzoxazole-6-sulfonamide]",161,186 nM,–
"CC(c1cccc2c1CNCC2)n1c(=O)oc2cc(S(=O)(=O)Nc3ncns3)c(Cl)cc21 (racemic) [Compound 34-7, (+/−)-5-chloro-2-oxo-3-[1-(1,2,3,4-tetrahydroisoquinolin-8-yl)ethyl]-N-1,2,4-thiadiazol-5-yl-2,3-dihydro-1,3-benzoxazole-6-sulfonamide]",129,565 nM,–
"C[C@H](c1ccccc1CN1CCC(F)(F)C1)n1c(=O)oc2cc(S(=O)(=O)Nc3ncns3)c(F)cc21 [Compound 18-3, 3-[(1R)-1-{2-[(3,3-difluoropyrrolidin-1-yl)methyl]phenyl}ethyl]-5-fluoro-2-oxo-N-1,2,4-thiadiazol-5-yl-2,3-dihydro-1,3-benzoxazole-6-sulfonamide]",15,768 nM,–
"O=c1oc2cc(S(=O)(=O)Nc3ncns3)c(F)cc2n1C1CCOc2ccccc21 (centres unmarked) [Compound 39-6, 3-(3,4-dihydro-2H-chromen-4-yl)-5-fluoro-2-oxo-N-1,2,4-thiadiazol-5-yl-2,3-dihydro-1,3-benzoxazole-6-sulfonamide]",110,221 nM,–
"O=c1oc2cc(S(=O)(=O)Nc3nccs3)c(F)cc2n1Cc1cccc2c1CNCC2F (single isomer, unassigned) [Compound 43-27, (R or S)-5-fluoro-3-[(4-fluoro-1,2,3,4-tetrahydroisoquinolin-8-yl)methyl]-2-oxo-N-1,3-thiazol-2-yl-2,3-dihydro-1,3-benzoxazole-6-sulfonamide]",282,106 nM,–
"CCCN1CCc2cccc(Cn3c(=O)oc4cc(S(=O)(=O)Nc5ncns5)ccc43)c2C1 [Compound 6-3, 2-oxo-3-[(2-propyl-1,2,3,4-tetrahydroisoquinolin-8-yl)methyl]-N-1,2,4-thiadiazol-5-yl-2,3-dihydro-1,3-benzoxazole-6-sulfonamide]",–,–,642 nM
"O=c1oc2cc(S(=O)(=O)Nc3ncns3)ccc2n1Cc1ccccc1-c1ccnc(CN2CCCCC2)c1 [Compound 3-10, 2-oxo-3-{2-[2-(piperidin-1-ylmethyl)pyridin-4-yl]benzyl}-N-1,2,4-thiadiazol-5-yl-2,3-dihydro-1,3-benzoxazole-6-sulfonamide]",–,–,1740 nM
"O=c1oc2cc(S(=O)(=O)Nc3ncns3)c(F)cc2n1[C@@H]1CC2(CCC2)Oc2ccccc21 [Compound 39-14, 3-[(4R)-3,4-dihydrospiro[chromene-2,1′-cyclobutan]-4-yl]-5-fluoro-2-oxo-N-1,2,4-thiadiazol-5-yl-2,3-dihydro-1,3-benzoxazole-6-sulfonamide]",99,60 nM,–
"C[C@H](c1ccccc1C#Cc1cncn1C)n1c(=O)oc2cc(S(=O)(=O)Nc3ncns3)c(F)cc21 [Compound 17-8, 5-fluoro-3-[(1R)-1-{2-[(1-methyl-1H-imidazol-5-yl)ethynyl]phenyl}ethyl]-2-oxo-N-1,2,4-thiadiazol-5-yl-2,3-dihydro-1,3-benzoxazole-6-sulfonamide]",27,64 nM,–
"O=c1oc2cc(S(=O)(=O)Nc3ncns3)c(F)cc2n1[C@@H]1C[C@@H](c2ccccc2)Oc2ccccc21 [Compound 39-15, 5-fluoro-2-oxo-3-[(2S,4R)-2-phenyl-3,4-dihydro-2H-chromen-4-yl]-N-1,2,4-thiadiazol-5-yl-2,3-dihydro-1,3-benzoxazole-6-sulfonamide]",36,54 nM,–
"C[C@H](c1ccccc1C#CCN)n1c(=O)oc2cc(S(=O)(=O)Nc3nccs3)c(F)cc21 [Compound 43-19, 3-{(1R)-1-[2-(3-aminoprop-1-yn-1-yl)phenyl]ethyl}-5-fluoro-2-oxo-N-1,3-thiazol-2-yl-2,3-dihydro-1,3-benzoxazole-6-sulfonamide]",1267,29 nM,–
"O=c1oc2cc(S(=O)(=O)Nc3ncns3)c(F)cc2n1Cc1cccc2c1CC(N1CCS(=O)(=O)CC1)CC2 (single isomer, unassigned) [Compound 23-6, (R or S)-3-{[7-(1,1-dioxidothiomorpholin-4-yl)-5,6,7,8-tetrahydronaphthalen-1-yl]methyl}-5-fluoro-2-oxo-N-1,2,4-thiadiazol-5-yl-2,3-dihydro-1,3-benzoxazole-6-sulfonamide]",146,206 nM,–
"O=c1oc2cc(S(=O)(=O)Nc3ncns3)ccc2n1Cc1cccc(C2=CCCNC2)c1 [Compound 3-15, 2-oxo-3-[3-(1,2,5,6-tetrahydropyridin-3-yl)benzyl]-N-1,2,4-thiadiazol-5-yl-2,3-dihydro-1,3-benzoxazole-6-sulfonamide]",–,–,646 nM
"C[C@H](c1ccccc1C1=CCNCCC1)n1c(=O)oc2cc(S(=O)(=O)Nc3ncns3)c(F)cc21 [Compound 16-6, 5-fluoro-2-oxo-3-{(1R)-1-[2-(2,5,6,7-tetrahydro-1H-azepin-4-yl)phenyl]ethyl}-N-1,2,4-thiadiazol-5-yl-2,3-dihydro-1,3-benzoxazole-6-sulfonamide]",1692,18 nM,–
"O=C(c1ccccc1)N1CCC2(CC1)CC(n1c(=O)oc3cc(S(=O)(=O)Nc4ncns4)c(F)cc31)c1cc(F)ccc1O2 (centres unmarked) [Compound 39-9, 5-fluoro-3-[6-fluoro-1′-(phenylcarbonyl)-3,4-dihydrospiro[chromene-2,4′-piperidin]-4-yl]-2-oxo-N-1,2,4-thiadiazol-5-yl-2,3-dihydro-1,3-benzoxazole-6-sulfonamide]",54,168 nM,–
